From patent US20250034139A1, “AMINE COMPOUNDS HAVING ANTI-INFLAMMATORY, ANTIFUNGAL, ANTIPARASITIC, AND ANTICANCER ACTIVITY” (PHARMA CINQ, LLC, priority 2013, published 2025)
Values after ≈ are worked out from the molar mass of the structure shown. Values joined by “and” are separate entries in the source; they are usually repeats but may differ in a detail not shown here. Equal values may be shown once. Where a name gives a salt, the structure may show the parent alone. Read-outs that look alike come from different tables or passages of the source.

What was measured:
[1] = tested on: Candida albicans strain 3153; assay: Example H: Candida albicans growth inhibition (OD 600 nm); type: cell-based; conditions: for MIC: Candida albicans, 3153, 24 hrs at 30° C., YPD, XLfit, read-out: MIC (uM) (99% of inhibition of fungal growth); for IC50: Candida albicans, 3153, read-out: IC50 (uM) (50% inhibition of fungal growth), 24 hrs at 30° C., YPD, XLfit
In short: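 Growth inhibition computed as % versus DMSO control from OD600 after ~24 h at 30° C. Inoculum: washed overnight YPD culture of strain 3153 at 3.5×10^4 CFU/ml in YPD; final compound concentrations 0, 5, 10, 16, 22, 30, 40 μM, duplicate wells.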

[2] = tested on: Cryptococcus neoformans (serotype D); assay: Example K: Cryptococcus neoformans (serotype D) growth inhibition; type: cell-based; conditions: Cryptococcus deneoformans; for IC50: read-out: IC50 (concentration for 50% of inhibition); for MIC: read-out: MIC (concentration for maximum-99% of inhibition)
[3] = tested on: PC3 human prostate cancer cells; assay: Example S: in vitro anticancer screen, PC-3 cells, Wst1; type: cell-based; conditions: Homo sapiens, PC-3, approximately 20 hours, Wst1, read-out: PC-3, percent of cancer cell survival relative to vehicle treated cells
In short: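 Values give percent survival relative to vehicle, read by Wst1 absorbance (450/630 nm) after 2 h dye incubation, in triplicate. Cells were seeded at 2×10^4/well and treated about 20 h with compound at 0.4, 0.5 or 2.5 μM, depending on compound.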

THP-1 cells = assay: Example D: LPS-triggered THP-1 cell death assay, acute/5-hour and chronic/48-hour; type: cell-based, Human; conditions: for Viable cell percent change, Chronic/48-hour, Mean: 10 ng/ml LPS, 0.1 μM test compound; for activity relative to AC in the LPS-triggered THP-1 cell death assay, in words: 0.1 μM, 5-hour and 48-hour time points
Method: Compounds of the invention were tested at 0.1 μM versus AC in the LPS-triggered THP-1 cell death assay. Both acute/5-hour and chronic/48-hour phases of cell death were assessed. Compounds were screened in batches with DMSO as the negative control and AC as the high activity control.

[4] = OD of 48 hour reading, 37° C., tested 4 to 60 μM, XLfit

For `CCCCCCOc1ccc(CNc2ccnc3ccccc23)cc1` [AA, N-[4-(Hexyloxy)benzyl]quinolin-4-amine], the MIC [1] was 27.3 µM (≈ 9.13 µg/mL), the IC50 [1] was 11 µM and the IC50 [2, 4] was 3340 nM. It also gave an MIC [2, 4] of 40.5 µM (≈ 13.6 µg/mL) and a viability at 1.5 µM ([3]; 1.5 μM) of 82.6%.
`COc1ccc(OCCCCCCCCNc2ncnc3ccccc23)cc1` [AE, N-[8-(4-Methoxyphenoxy)octyl]quinazolin-4-amine] was tested, and the “Viable cell percent change, Chronic/48-hour, Mean” value (“Viable cell percent change” below) (THP-1 cells) was 4.11%, the “activity relative to AC in the LPS-triggered THP-1 cell death assay, in words” value (“activity relative to AC” below) (THP-1 cells) was “equivalent activity to AC at both the 5-hour and 48-hour time points” and the IC50 [1] was 7.82 µM. For the same molecule, the IC50 [2, 4] was 530 nM and the MIC [2, 4] was 6.99 µM (≈ 2.65 µg/mL).
With `c1ccc(Oc2cccc(CNc3ccnc4ccccc34)c2)cc1` [AF, N-(3-Phenoxybenzyl)quinolin-4-amine] the “Viable cell percent change” value (THP-1 cells) was 13.79%, the “activity relative to AC” value (THP-1 cells) was “more active than AC at the chronic/48-hour time point” and the MIC [1] was 74.2 µM (≈ 24.2 µg/mL). For the same molecule, the IC50 [1] was 45.5 µM, the IC50 [2, 4] was 5180 nM and the MIC [2, 4] was 55.9 µM (≈ 18.2 µg/mL). For the same molecule, the viability at 0.4 µM [3] was 19.1%.
In the case of `CCCCCCOc1cccc(CNc2ncnc3ccccc23)c1` [AK, N-[3-(Hexyloxy)benzyl]quinazolin-4-amine], the “activity relative to AC” value (THP-1 cells) is reported as “equivalent activity to AC at both the 5-hour and 48-hour time points”, the IC50 [1] is reported as 10.7 µM and the IC50 [2, 4] is reported as 850 nM. The MIC [2, 4] was 24.6 µM (≈ 8.26 µg/mL).
For `CCCCOCCCCCCCCCCNc1ccnc2ccccc12` [AM, N-(10-Butoxydecyl)quinolin-4-amine], the “activity relative to AC” value (THP-1 cells) was “more active than AC at the chronic/48-hour time point”, the MIC [1] was 16.2 µM (≈ 5.77 µg/mL) and the IC50 [1] was 6.52 µM. For the same molecule, the IC50 [2, 4] was 3320 nM, the MIC [2, 4] was 13.3 µM (≈ 4.75 µg/mL) and the viability at 0.4 µM [3] was 58.5%.
In the case of `CCCCCCOCCCCCCCCn1cnc2cnccc21` [AS, 1-[8-(Hexyloxy)octyl]-1H-imidazo[4,5-c]pyridine], the “Viable cell percent change” value (THP-1 cells) is reported as 3.86%, the MIC [1] is reported as 37.8 µM (≈ 12.5 µg/mL) and the IC50 [1] is reported as 15.3 µM. For the same molecule, the IC50 [2, 4] was 1460 nM, the MIC [2, 4] was 26.8 µM (≈ 8.89 µg/mL) and the viability at 2.5 µM [3] was 31.1%.
In the case of `CCCCOCCCCCCCCCCn1cnc2cnccc21` [AT, 1-(10-Butoxydecyl)-1H-imidazo[4,5-c]pyridine], the “Viable cell percent change” value (THP-1 cells) is reported as 30.34%, the MIC [1] is reported as 51.2 µM (≈ 17 µg/mL) and the IC50 [1] is reported as 14.5 µM. The IC50 [2, 4] was 1290 nM, the MIC [2, 4] was 41.8 µM (≈ 13.9 µg/mL) and the viability at 0.4 µM [3] was 34.6%.
`CCCCCCOCCCCCCCCNc1ccncn1` [AU, N-[8-(Hexyloxy)octyl]pyrimidin-4-amine] was tested, and the “Viable cell percent change” value (THP-1 cells) was 16.86%, the MIC [1] was 30.9 µM (≈ 9.52 µg/mL) and the IC50 [1] was 16.3 µM. For the same molecule, the IC50 [2, 4] was 1630 nM, the MIC [2, 4] was 14.4 µM (≈ 4.42 µg/mL) and the viability at 2.5 µM [3] was 32.4%.
With `CCCCCCOCCCCCCCCNc1cc(C)nc2ccccc12` [AV, N-[8-(Hexyloxy)octyl]-2-methylquinolin-4-amine] the “Viable cell percent change” value (THP-1 cells) was 38.76%, the MIC [1] was 19.8 µM (≈ 7.34 µg/mL) and the IC50 [1] was 13.4 µM. For the same molecule, the IC50 [2, 4] was 5120 nM, the MIC [2, 4] was 22.9 µM (≈ 8.47 µg/mL) and the viability at 2.5 µM [3] was 38.2%.
`CCCCCCOCCCCCCCCNc1ccnc2cc(Cl)ccc12` [AW, 7-Chloro-N-[8-(hexyloxy)octyl]quinolin-4-amine] gave an MIC [1] of 24.8 µM (≈ 9.7 µg/mL), an IC50 [1] of 13.3 µM and an IC50 [2, 4] of 900 nM. The MIC [2, 4] was 8.73 µM (≈ 3.41 µg/mL) and the viability at 0.4 µM [3] was 38.2%.
In the case of `CCCCCCOc1cccc(OCCCNc2ccnc3ccccc23)c1` [AZ, N-{3-[3-(Hexyloxy)phenoxy]propyl}quinolin-4-amine], the “Viable cell percent change” value (THP-1 cells) is reported as 50.12%, the MIC [1] is reported as 21.1 µM (≈ 7.99 µg/mL) and the IC50 [1] is reported as 10.4 µM. The IC50 [2, 4] was 2010 nM, the MIC [2, 4] was 15.8 µM (≈ 5.99 µg/mL) and the viability at 0.4 µM [3] was 95.4%.
In the case of `Cc1cccc(OCCCCCCCCNc2ccnc3ccccc23)c1` [BE, N-[8-(m-Tolyloxy)octyl]quinolin-4-amine], the “Viable cell percent change” value (THP-1 cells) is reported as 33.86%, the MIC [1] is reported as 29.7 µM (≈ 10.8 µg/mL) and the IC50 [1] is reported as 12.2 µM. The IC50 [2, 4] was 3450 nM, the MIC [2, 4] was 13.2 µM (≈ 4.77 µg/mL) and the viability at 0.4 µM [3] was 99.1%.
`Cc1ccc(OCCCCCCCCNc2ccnc3ccccc23)cc1` [BF, N-[8-(p-Tolyloxy)octyl]quinolin-4-amine] was tested, and the “Viable cell percent change” value (THP-1 cells) was 31.64%, the MIC [1] was 26.9 µM (≈ 9.77 µg/mL) and the IC50 [1] was 14.2 µM. It also gave a viability at 0.4 µM [3] of 92.8%.
For `Cc1ccccc1OCCCCCCCCNc1ccnc2ccccc12` [BG, N-[8-(o-Tolyloxy)octyl]quinolin-4-amine], the “Viable cell percent change” value (THP-1 cells; 0.1 µM) was 38.39% and 31.07%, the MIC [1] was 20.9 µM (≈ 7.56 µg/mL) and the IC50 [1] was 11.5 µM. The IC50 [2, 4] was 2130 nM, the MIC [2, 4] was 12.5 µM (≈ 4.55 µg/mL) and the viability at 0.4 µM [3] was 99.1%.
With `Fc1cccc(OCCCCCCCCNc2ccnc3ccccc23)c1` [BI, N-[8-(3-Fluorophenoxy)octyl]quinolin-4-amine] the “Viable cell percent change” value (THP-1 cells) was 27.30%, the MIC [1] was 27.8 µM (≈ 10.2 µg/mL) and the IC50 [1] was 17.5 µM. For the same molecule, the IC50 [2, 4] was 2230 nM, the MIC [2, 4] was 19.6 µM (≈ 7.17 µg/mL) and the viability at 0.4 µM [3] was 111%.
`Fc1ccc(OCCCCCCCCNc2ccnc3ccccc23)cc1` [BJ, N-[8-(4-Fluorophenoxy)octyl]quinolin-4-amine] was tested, and the “Viable cell percent change” value (THP-1 cells) was 18.03%, the MIC [1] was 23.5 µM (≈ 8.6 µg/mL) and the IC50 [1] was 13.3 µM. The IC50 [2, 4] was 1860 nM, the MIC [2, 4] was 18.5 µM (≈ 6.79 µg/mL) and the viability at 0.4 µM [3] was 23.9%.
With `CCCCCCOc1ccc(CNc2ccnc3ccccc23)cc1F` [BK, N-[3-Fluoro-4-(hexyloxy)benzyl]quinolin-4-amine] the “Viable cell percent change” value (THP-1 cells) was 43.69%, the “activity relative to AC” value (THP-1 cells) was “equivalent activity to AC at both the 5-hour and 48-hour time points” and the MIC [1] was 19 µM (≈ 6.71 µg/mL). The IC50 [1] was 11.2 µM, the IC50 [2, 4] was 2440 nM and the MIC [2, 4] was 16.5 µM (≈ 5.82 µg/mL). The viability at 0.4 µM [3] was 29.2%.
In the case of `c1ccc(Oc2cccc(CNc3ncnc4ccccc34)c2)cc1` [BM, N-(3-Phenoxybenzyl)quinazolin-4-amine], the “Viable cell percent change” value (THP-1 cells) is reported as 29.97%, the “activity relative to AC” value (THP-1 cells) is reported as “more active than AC at the chronic/48-hour time point” and the MIC [1] is reported as 44.5 µM (≈ 14.6 µg/mL). The IC50 [1] was 20.2 µM, the IC50 [2, 4] was 720 nM and the MIC [2, 4] was 22.6 µM (≈ 7.38 µg/mL).
`CCCCCCOCCCCCCCC[n+]1ccc(N)cc1` [BO, 4-Amino-1-[8-(hexyloxy)octyl]pyridinium salts] was tested, and the “Viable cell percent change” value (THP-1 cells) was 28.35%, the MIC [1] was 42.5 µM and the IC50 [1] was 19 µM. For the same molecule, the IC50 [2, 4] was 2000 nM, the MIC [2, 4] was 13.4 µM and the viability at 0.4 µM [3] was 13.4%.
In the case of `CCCCCCOc1cccc(CNc2ccnc3ccccc23)c1` [Compound AC, N-[3-(Hexyloxy)benzyl]quinolin-4-amine], the MIC [1] is reported as 108 µM (≈ 36 µg/mL), the IC50 [1] is reported as 45.7 µM and the IC50 ([2]; 48 h) is reported as 3350 nM. It also gave an MIC [2, 4] of 19.4 µM (≈ 6.49 µg/mL) and a viability at 0.4 µM [3] of 61.5%.
`CCCCCCCCCCNc1ccnc2ccccc12` [Compound AG, N-(Decyl)quinolin-4-amine] was tested, and the “activity relative to AC” value (THP-1 cells) was “more active than AC at the chronic/48-hour time point”, the MIC [1] was 16 µM (≈ 4.55 µg/mL) and the IC50 [1] was 8.92 µM. The IC50 [2, 4] was 1780 nM, the MIC [2, 4] was 17.6 µM (≈ 4.99 µg/mL) and the viability at 2.5 µM [3] was 18.4%.
For `CCCCCCCCCCNc1ncnc2ccccc12` [Compound AH, N-(Decyl)quinazolin-4-amine], the “activity relative to AC” value (THP-1 cells) was “more active than AC at the chronic/48-hour time point”, the MIC [1] was 15.4 µM (≈ 4.4 µg/mL) and the IC50 [1] was 5.24 µM. The IC50 [2, 4] was 760 nM and the MIC [2, 4] was 9.54 µM (≈ 2.72 µg/mL).
With `CCCCCCOCCCCCCCCCCNc1ccnc2ccccc12` [Compound AL, N-[10-(Hexyloxy)decyl]quinolin-4-amine] the “Viable cell percent change” value (THP-1 cells) was 19.14%, the “activity relative to AC” value (THP-1 cells) was “equivalent activity to AC at both the 5-hour and 48-hour time points” and the MIC [1] was 20.1 µM (≈ 7.72 µg/mL). For the same molecule, the IC50 [1] was 7.08 µM, the IC50 [2, 4] was 1880 nM and the MIC [2, 4] was 11.5 µM (≈ 4.44 µg/mL). The viability at 0.4 µM [3] was 61.6%.
For `CCCCCCOCCCCCCCCNc1ccnc2c(Cl)cccc12` [Compound AX, 8-Chloro-N-[8-(hexyloxy)octyl]quinolin-4-amine], the “Viable cell percent change” value (THP-1 cells) was 18.20%, the MIC [1] was 26.6 µM (≈ 10.4 µg/mL) and the IC50 [1] was 11.2 µM. The IC50 [2, 4] was 1060 nM, the MIC [2, 4] was 10.6 µM (≈ 4.13 µg/mL) and the viability at 0.4 µM [3] was 31.2%.
